# Laboratory results from patent US7071206B2, “Agents for treating neurodegenerative disorders” (Medivation, Inc., priority 1995, dated 2006).
# Several values for one entry are separate records, joined by “and”; a condition that tells them apart may be missing. Equal entries are not always repeated.
# Test system: patients suffering from Alzheimer's disease
# Experiment: Clinical trial of dimebon tablets, inventors' scale (E. E. Bukatina et al.; 0 = absence of a symptom, 4 = greatest manifestation)
# Assay type: in vivo, human
# Description: The test was carried out under the direct supervision by two of the inventors, namely E. E. Bukatina and V. Grigorieva, in 14 patients who agreed to take part in the tests, 13 of whom lived in a boarding house for senile persons and one patient lived with their family.
# Alzheimer's disease was diagnosed on the basis of criteria ICD-10 NINCDS ADRDA.
# Dimebon in the form of tablets (comprising 10 mg of dimebon, 30 mg of lactose, 5 mg of magnesium stearate was prescribed for oral administration in a dose of 0.02 g three to times a day. The patients living in the boarding house received dimebon for 58 days. A patient (observation 14) who was under outpatient observation continued taking the agent for a month after the completion of the tests.
# Before the treatment with dimebon, and at 4 and 8 weeks after treatment the patients were examined according to Hazegawa's scale and the inventors' scale (“Social and Clinical Psychiatry”, 1992, No.4, pp.29–37) which includes the following indexes: (1) orientation in locality, time, immediate surroundings and one's own personality; (2) orientation in space; (3) memory for the past; (4) memory for the present; (5) “life in the past”; (6) (a) articulation, (b) difficulty in finding words, and distortion of words; (c) naming of objects; (d) following instructions; (7) concentration (of attention); (8) an affective sphere; (a) high spirits, (b) low spirits; (9) delirium; (10) hearing hallucinations; (11) visual hallucinations; (12) senile or senile-like confusion (when motion anxiety is accompanied by the revival of the past experience); (13) irritability; (14) anxiety; (15) asthenia; (16) headaches; (17) dizziness; (18) tearfulness; (19) spontaneous activity; (20) elementary self-service; and (21 control of sphincters.
# According to the Hazegawa's scale, the 0 score indicates the poorest result; on the contrary, according to the inventors' scale, the 0 score indicates the absence of a symptom 4 score indicates the greatest manifestation thereof. […] Before the therapy was started, the patients had been independently examined by two doctors who used the inventors' scale. The examination during the treatment was carried out by the doctors using both the scales. The evaluation according to all the inventors' scale points during all the tests and their variations during the treatment with dimebon are given in the Appendix.
# According to the inventors' scale, the degree of the disturbance if the cognitive functions was determined by a sum of evaluations according to the first 5 scale points reflecting the condition of memory, orientation and relation with the reality. The disturbance of speech was dealt with separately and was determined by a sum of evaluations according to items 6b-6d.
# Both absolute evaluations of the signs under investigation (the evaluation prior to treatment is a mean evaluation of the two examinations) and variations in them were analysed in the course of therapy. In doing so, only those changes that were beyond the range of evaluations obtained in two pre-treatment examinations were taken into consideration.
# The test results reflected the condition of the patients at the time of the examination. Any changes in the metal state observed in the interval between the tests and disappearing by the moment of examination according to the scale were described in the section “Clinical Observations”.
# The statistical data processing was carried out by means of Student's t-test and Fisher's “Fi” criterion.
# [1] = after 8 weeks vs two examinations prior to treatment, + improvement, − deterioration
# [2] = after 8 weeks, mean of 14 patients
# [3] = change at 4 weeks vs K1, K2, per patient, listed as dimebon
compound,measurement,setting,value
"Cc1ccc2c(c1)c1c(n2CCc2ccc(C)nc2)CCN(C)C1 [No. 10, 2,8-dimethyl-5-[2-(6-methyl-3-pyridyl)ethyl]-2,3,4,5-tetrahydro-1H-pyrido[4,3-b]indole]",Item 20 (elementary self-service): mean value,"after 4 weeks, mean of 14 patients",0.07 +/− 0.07 scores
same,mean score of tearfulness,after 8 weeks,0±0.0
same,number of patients with signs of aggravation of depression,after 8 weeks,One
same,tearfulness,after 8 weeks,not a single female patient suffered from tearfulness
same,"Item 1 (orientation in locality, time, immediate surroundings and one's own personality): change during the course of the therapy",[1],+0.18 +/− 0.08 scores
same,Item 2 (orientation in space): change during the course of the therapy,[1],+0.11 +/− 0.07 scores
same,Item 3 (memory for the past): change during the course of the therapy,[1],+0.29 +/− 0.1 scores
same,Item 4 (memory for the present): change during the course of the therapy,[1],_0.29 +/− 0.08 scores
same,Item 5 (life in the past): change during the course of the therapy,[1],_0.29 +/− 0.1 scores
same,Item 6a (speech): change during the course of the therapy,[1],+0.14 +/− 0.08 scores
same,"Item 6b (difficulty in finding words, and distortion of words): change during the course of the therapy",[1],−0.04 +/− 0.03 scores
same,Item 6g (speech): change during the course of the therapy,[1],−0.07 +/− 0.18 scores
same,Item 7 (concentration of attention): change during the course of the therapy,[1],−0.04 +/− 0.06 scores
same,Item 8b (low spirits): change during the course of the therapy,[1],+0.43 +/− 0.2 scores
same,Item 9 (delirium): change during the course of the therapy,[1],+0.25 +/− 0.17 scores
same,Item 13 (irritability): change during the course of the therapy,[1],+0.36 +/− 0.16 scores
same,Item 14 (anxiety): change during the course of the therapy,[1],+0.07 +/− 0.09 scores
same,Item 15 (asthenia): change during the course of the therapy,[1],0 +/− 0 scores
same,Item 16 (headaches): change during the course of the therapy,[1],+0.21 +/− 0.1 scores
same,Item 17 (dizziness): change during the course of the therapy,[1],−0.18 +/− 0.22 scores
same,Item 18 (tearfulness): change during the course of the therapy,[1],+0.21 +/− 0.15 scores
same,Item 19 (spontaneous activity): change during the course of the therapy,[1],+0.04 +/− 0.11 scores
same,Item 20 (elementary self-service): change during the course of the therapy,[1],0 +/− 0.1 scores
same,"Item 1 (orientation in locality, time, immediate surroundings and one's own personality): mean value",[2],1.57 +/− 0.23 scores
same,Item 2 (orientation in space): mean value,[2],0.25 +/− 0.13 scores
same,Item 3 (memory for the past): mean value,[2],1.93 +/− 0.24 scores
same,Item 4 (memory for the present): mean value,[2],1.86 +/− 0.23 scores
same,Item 5 (life in the past): mean value,[2],1.57 +/− 0.27 scores
same,Item 6a (speech): mean value,[2],0.54 +/− 0.21 scores
same,"Item 6b (difficulty in finding words, and distortion of words): mean value",[2],0.39 +/− 0.2 scores
same,Item 6g (speech): mean value,[2],0.54 +/− 0.19 scores
same,Item 7 (concentration of attention): mean value,[2],1.75 +/− 0.3 scores
same,Item 8b (low spirits): mean value,[2],0.46 +/− 0.14 scores
same,Item 9 (delirium): mean value,[2],0.5 +/− 0.19 scores
same,Item 13 (irritability): mean value,[2],0.14 +/− 0.09 scores
same,Item 14 (anxiety): mean value,[2],0.18 +/− 0.1 scores
same,Item 15 (asthenia): mean value,[2],0.04 +/− 0.03 scores
same,Item 16 (headaches): mean value,[2],0.64 +/− 0.24 scores
same,Item 17 (dizziness): mean value,[2],0.68 +/− 0.25 scores
same,Item 18 (tearfulness): mean value,[2],0.14 +/− 0.14 scores
same,Item 19 (spontaneous activity): mean value,[2],1.18 +/− 0.27 scores
same,Item 20 (elementary self-service): mean value,[2],0.14 +/− 0.4 scores
same,impairments according to the first 5 scale points (cognitive functions),both after 4-week and 8-week treatment,lack of impairments
same,"20. Elementary self-service, Changes (4 weeks)","change at 4 weeks vs K1, K2, per patient",+1
same,"2. Orientation in space, Changes (4 weeks)",[3],−0.5
same,"5. Life in the past, Changes (4 weeks)",[3],+0.5 (2×) and +1
same,"6c. Naming of objects, Changes (4 weeks)",[3],+0.5 and −1
same,"7. Concentration, Changes (4 weeks)",[3],+0.5 and −0.5
same,"8b. Lower spirits, Changes (4 weeks)",[3],+0.5 (3×) and +2 and +1
same,"9. Delirium, Changes (4 weeks)",[3],+0.5 and +1 and −0.5
same,"13. Irritability, Changes (4 weeks)",[3],+1.5 and +1 (2×) and +0.5
same,"14. Anxiety, Changes (4 weeks)",[3],+0.5 and +1 and −1 (2×)
same,"15. Asthenia, Changes (4 weeks)",[3],−0.5 and −1
same,"16. Headache, Changes (4 weeks)",[3],+1 (2×) and +2 (2×) and −1.5
same,"17. Dizziness, Changes (4 weeks)",[3],+1 and −1 and −2
same,"18. Tearfulness, Changes (4 weeks)",[3],+2 and 0
same,"6d. Performing instructions, Changes (4 weeks)",[3],−1 and +1 (2×)
same,"1. Orientation in locality and time, Changes (4 weeks)","change at 4 weeks vs K1, K2 prior to treatment, + improvement, − deterioration, — no change, per patient, listed as dimebon",+1 and +0.5
same,"1. Orientation in locality and time, Changes (8 weeks)","change at 8 weeks vs K1, K2, + improvement, − deterioration, — no change, per patient, listed as dimebon",+1 and +0.5 (3×)
